Test results: patent USRE48461E1, “Modulation of androgen receptor expression” (Ionis Pharmaceuticals, Inc., priority 2012, dated 2021)
Oligonucleotides are written 5' to 3', each unit as a sugar letter and its base; * is a phosphorothioate linkage, no mark a phosphodiester; rarer units and linkages stand in square brackets, end groups in braces. Plain capitals give the bases only. e = 2'-O-(2-methoxyethyl) (MOE); k = constrained ethyl (cEt); [5mC] = 5-methylcytosine; d = 2'-deoxy (DNA)

Experiments:
AR mRNA [1] = experiment: Dose-dependent antisense inhibition of human AR in HuVEC cells (electroporation, qRT-PCR RTS3559, IC50); assay type: cell-based; details: HuVEC
Method in brief: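 HuVEC cells dosed with antisense oligonucleotides by electroporation and treated approximately 16 hours. AR mRNA quantified by real-time qPCR with primer probe set RTS3559 and normalised to total RNA by RIBOGREEN; IC50 from dose-response.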

AR mRNA [2] = experiment: AR mRNA in LnCaP cells by free uptake (hAR_LTS00943); assay type: cell-based, human; details: 24 hrs
Protocol: Cells were plated at a concentration of 4,000 cells/well in 96-well plates. ISIS oligonucleotides, specified in Table 68, were added individually at 0.02 μM, 0.10 μM, 0.50 μM, 2.50 μM, or 10.00 μM. After an incubation period of 24 hrs, mRNA levels were measured using primer probe set hAR_LTS00943.

AR mRNA [3] = experiment: AR mRNA in liver, heart, skeletal muscle, kidney, prostate of cynomolgus monkeys; assay type: in vivo; details: cynomolgus monkey, 40 mg/kg subcutaneously; for Percent Inhibition of AR mRNA relative to the PBS control, Heart: weeks 1 to 6, Heart; for Percent Inhibition of AR mRNA relative to the PBS control, Kidney: weeks 1 to 6, Kidney; for Percent Inhibition of AR mRNA relative to the PBS control, Liver: weeks 1 to 6, Liver; for Percent Inhibition of AR mRNA relative to the PBS control, Skeletal Muscle: weeks 1 to 6, Skeletal Muscle
Protocol: Cynomolgus monkeys were treated with ISIS antisense oligonucleotides selected from studies described above. Antisense oligonucleotide efficacy and tolerability were evaluated. The human antisense oligonucleotides tested are cross-reactive with the rhesus genomic sequence (GENBANK Accession No. NW_001218131.1 truncated from nucleotides 134001 to 308000 and designated herein as SEQ ID NO: 189). The target start site and target region of each oligonucleotide to SEQ ID NO: 189, as well as the details of their chemistry and sequence, is presented in Table 133.
RNA was extracted from liver, heart, skeletal muscle, kidney, and prostate tissues for real-time PCR analysis of AR using primer probe set RTS3559. The results were normalized to RIBOGREEN®. Results are presented as percent inhibition of AR mRNA, relative to PBS control.

AR mRNA [4] = experiment: Antisense inhibition of human AR in HuVEC cells, single concentration (electroporation, qRT-PCR RTS3559); assay type: cell-based; details: Table 27, 1,000 nM oligonucleotide, electroporation, approximately 24 hours, relative to untreated control
Method in brief: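 HuVEC cells electroporated with antisense oligonucleotides at a single concentration. AR mRNA quantified by qRT-PCR using human primer-probe set RTS3559 and normalised to total RNA content by RIBOGREEN.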

| Substance | percent inhibition of AR (AR mRNA [1]; 62.5 nM, ~16 h, Table 11) [%] | percent inhibition of AR (AR mRNA [1]; 125.0 nM, ~16 h, Table 11) [%] | percent inhibition of AR (AR mRNA [1]; 500.0 nM, ~16 h, Table 11) [%] | percent inhibition of AR (AR mRNA [1]; 1000.0 nM, ~16 h, Table 11) [%] | IC50 (AR mRNA [1]; ~16 h, Table 11) [nM] | Percent inhibition of AR mRNA (AR mRNA [2]; 0.02 μM) [%] | Percent inhibition of AR mRNA (AR mRNA [2]; 0.1 μM) [%] | Percent inhibition of AR mRNA (AR mRNA [2]; 0.5 μM) [%] | Percent inhibition of AR mRNA (AR mRNA [2]; 10 μM) [%] | Percent Inhibition of AR mRNA relative to the PBS control, Heart (AR mRNA [3]) [%] | Percent Inhibition of AR mRNA relative to the PBS control, Kidney (AR mRNA [3]) [%] | Percent Inhibition of AR mRNA relative to the PBS control, Liver (AR mRNA [3]) [%] | Percent Inhibition of AR mRNA relative to the PBS control, Skeletal Muscle (AR mRNA [3]) [%] | % inhibition (AR mRNA [4]) [%] | percent inhibition of AR, 46.9 nM (AR mRNA [1]; Table 36, 46.9 nM, electroporation, approximately 16 hours) [%] | percent inhibition of AR, 187.5 nM (AR mRNA [1]; Table 36, 187.5 nM, electroporation, approximately 16 hours) [%] | percent inhibition of AR, 750.0 nM (AR mRNA [1]; Table 36, 750.0 nM, electroporation, approximately 16 hours) [%] | percent inhibition of AR, 3000.0 nM (AR mRNA [1]; Table 36, 3000.0 nM, electroporation, approximately 16 hours) [%] | IC50 (AR mRNA [1]; Table 36, electroporation, approximately 16 hours) [nM] | Percent Inhibition of AR mRNA relative to the PBS control, Prostate (AR mRNA [3]; weeks 1 to 6, Prostate) [%] |
| --- | --- | --- | --- | --- | --- | --- | --- | --- | --- | --- | --- | --- | --- | --- | --- | --- | --- | --- | --- | --- |
| 579671 (antisense eT*kT*kG*eA*kT*kT*dT*dA*dA*dT*dG*dG*dT*kT*kG*k[5mC]) [compound 579671] | 6 | 40 | 57 | 77 | 288 | 15 | 0 | 19 | 71 | 24 | 53 | 33 | 31 | – | – | – | – | – | – | – |
| 584468 (k[5mC]*kA*kT*dT*dG*dT*dA*d[5mC]*dT*dA*dT*dG*d[5mC]*k[5mC]*kA*kG) [compound 584468] | – | – | – | – | – | 0 | 0 | 10 | 73 | 33 | 88 | 97 | 53 | 64 | 9 | 26 | 60 | 90 | 370 | 50 |
